Test results: ChEMBL document CHEMBL1130930, “In vitro anti-human immunodeficiency virus (HIV) activity of the chromanone derivative, 12-oxocalanolide A, a novel NNRTI” (Bioorg Med Chem Lett, 1998)
Activity calls are given as the source filed them. The rule behind the calls is not given here.

Tests used:
[1] = test system: Human immunodeficiency virus 1; assay: Compound was evaluated for the antiviral activity against compound resistant virus isolate L100I with amino acid changes in the HIV-1 reverse transcriptase (RT); assay type: functional, organism-based
[2] = test system: Human immunodeficiency virus 1; assay: Compound was evaluated for the antiviral activity against compound resistant virus isolate Y188H with amino acid changes in the HIV-1 reverse transcriptase (RT); assay type: functional, organism-based
[3] = test system: Human immunodeficiency virus 1; assay: Compound was evaluated for the antiviral activity against compound resistant virus isolate T1391 with amino acid changes in the HIV-1 reverse transcriptase (RT); assay type: functional, organism-based
[4] = test system: Human immunodeficiency virus 1; assay: Compound was evaluated for the antiviral activity against compound resistant virus isolate Y181C/K103N with amino acid changes in the HIV-1 reverse transcriptase (RT); assay type: functional, organism-based
[5] = test system: Human immunodeficiency virus 1; assay: Compound was evaluated for the antiviral activity against compound resistant virus isolate 4 x AZT with amino acid changes in the HIV-1 reverse transcriptase (RT); assay type: functional, organism-based
[6] = test system: Human immunodeficiency virus 1; assay: Compound was evaluated for the antiviral activity against compound resistant virus isolate P236L with amino acid changes in the HIV-1 reverse transcriptase (RT); assay type: functional, organism-based
[7] = test system: Human immunodeficiency virus 1; assay: Compound was evaluated for the antiviral activity against resistant virus isolate IIIB with amino acid changes in the HIV-1 reverse transcriptase (RT); assay type: functional, organism-based
[8] = test system: Human immunodeficiency virus 1; assay: Compound was evaluated for the antiviral activity against compound resistant virus isolate Y181C with amino acid changes in the HIV-1 reverse transcriptase (RT); assay type: functional, organism-based
[9] = test system: Human immunodeficiency virus 1; assay: Compound was evaluated for the antiviral activity against compound resistant virus isolate K103E with amino acid changes in the HIV-1 reverse transcriptase (RT)
[10] = test system: Human immunodeficiency virus 1; assay: Compound was evaluated for the antiviral activity against compound resistant virus isolate M184I with amino acid changes in the HIV-1 reverse transcriptase (RT); assay type: functional, organism-based
[11] = Therapeutic index against HIV-1 strain SK1 in CEM-SS cells was expressed as IC50/EC50; assay type: cell-based, Human immunodeficiency virus 1; details: for TI: human immunodeficiency virus 1, cem-ss; for selectivity ratio: human immunodeficiency virus 1, CEM-SS cells infected with HIV-1 strain SK1, read-out: TI
[12] = Therapeutic index against HIV-1 strain RF in CEM-SS cells was expressed as IC50/EC50; assay type: organism-based, Human immunodeficiency virus 1; details: for TI: human immunodeficiency virus 1, cem-ss
Homo sapiens [13] = species: Homo sapiens; assay: Compound was evaluated for the anti-HIV activity against HIV strain ADA in monocyte macrophages; assay type: functional, organism-based
CEM-SS [14] = assay: Compound was evaluated for the antiviral activity against HIV-1 strain SK1 in CEM-SS cells; assay type: functional, cell-based, Homo sapiens
[15] = Therapeutic index against HIV-2 strain ROD in CEM-SS cells was expressed as IC50/EC50; assay type: organism-based; details: human immunodeficiency virus 2, CEM-SS cells infected with HIV-2 strain ROD; read-out: TI
Homo sapiens [16] = species: Homo sapiens; assay: Compound was evaluated for the anti-HIV activity against HIV strain ROJO in fresh peripheral blood mononuclear cell (PBMC); assay type: functional, organism-based
CEM-SS [17] = assay: (§1) Compound was evaluated for the antiviral activity against HIV-1 strain IIIB in CEM-SS cells; assay type: functional, cell-based, Homo sapiens
[18] = test system: Human immunodeficiency virus 1; assay: Compound was evaluated for the antiviral activity against compound resistant virus isolate K101E with amino acid changes in the HIV-1 reverse transcriptase (RT); assay type: functional, organism-based
CEM-SS [19] = assay: Compound was evaluated for the antiviral activity against SIV delta in CEM-SS cells; assay type: functional, cell-based, Homo sapiens
[20] = Therapeutic index against HIV-1 strain IIIB in CEM-SS cells was expressed as IC50/EC50; assay type: cell-based, Human immunodeficiency virus 1; details: for TI: human immunodeficiency virus 1, cem-ss
B-cell = assay: (§2) Compound was evaluated for the anti-HIV activity against HIV strain IIIB in AA5 EBV-infected B-cell; assay type: functional, cell-based; details: Homo sapiens
CCRF-CEM [21] = assay: Compound was evaluated for the anti-HIV activity against HIV strain IIIB in 174 x CEM T-cell:B-cell fusion; assay type: functional, cell-based; details: Homo sapiens
[22] = test system: Human immunodeficiency virus 1; assay: Compound was evaluated for the antiviral activity against compound resistant virus isolate V1081 with amino acid changes in the HIV-1 reverse transcriptase (RT); assay type: functional, organism-based
[23] = test system: Human immunodeficiency virus 1; assay: Compound was evaluated for the antiviral activity against compound resistant virus isolate K103N with amino acid changes in the HIV-1 reverse transcriptase (RT); assay type: functional, organism-based
MT2 = assay: Compound was evaluated for the anti-HIV activity against HIV strain IIIB in MT2 T-cells; assay type: functional, cell-based, Homo sapiens
CCRF-CEM [24] = assay: Compound was evaluated for the anti-HIV activity against HIV strain SK1 in CEM-SS T-cells; assay type: functional, cell-based, Homo sapiens
[25] = (§3) Compound was evaluated for the anti-HIV activity against HIV strain IIIB in U937 monocytic cell; assay type: functional, cell-based; details: Homo sapiens, U-937
Homo sapiens [26] = species: Homo sapiens; assay: Compound was evaluated for the anti-HIV activity against HIV strain BaL in monocyte macrophages; assay type: functional, organism-based
[27] = Therapeutic index against SIV delta in CEM-SS cells was expressed as IC50/EC50; assay type: cell-based; details: simian immunodeficiency virus; for TI: cem-ss
CEM-SS [28] = assay: Compound was evaluated for the antiviral activity against HIV-1 strain RF in CEM-SS cells; assay type: functional, cell-based, Homo sapiens
Homo sapiens [29] = species: Homo sapiens; assay: Compound was evaluated for the anti-HIV activity against HIV strain TEKI in fresh peripheral blood mononuclear cell (PBMC); assay type: functional, organism-based
CCRF-CEM [30] = assay: Compound was evaluated for the anti-HIV activity against HIV strain IIIB in CEM-SS T-cells; assay type: functional, cell-based; details: Homo sapiens
CEM-SS [31] = assay: Compound was evaluated for the antiviral activity against HIV-2 strain ROD in CEM-SS cells; assay type: functional, Homo sapiens
CEM-SS [32] = assay: as §1; assay type: functional; details: Homo sapiens
CEM-SS [33] = assay: Compound was evaluated for the antiviral activity against HIV-1 strain SK1 in CEM-SS cells; IA: Inactive; assay type: functional, cell-based; details: Homo sapiens
Homo sapiens [34] = species: Homo sapiens; assay: Compound was evaluated for the anti-HIV activity against HIV strain TEKI in fresh peripheral blood mononuclear cell (PBMC). Value was expressed as EC50; assay type: functional, organism-based
AA5 = assay: as §2; assay type: functional, cell-based; details: Homo sapiens
U-937 = assay: as §3; assay type: functional, cell-based; details: Homo sapiens
CEM-SS [35] = assay: Compound was evaluated for the anti-HIV activity against HIV strain IIIB in CEM-SS Value was expressed as EC50; assay type: functional, cell-based; details: Homo sapiens
[36] = Compound was evaluated for the anti-HIV activity against HIV strain BaL in monocyte; assay type: functional; details: Homo sapiens

Cc1cn([C@H]2C[C@H](N=[N+]=[N-])[C@@H](CO)O2)c(=O)[nH]c1=O [ZIDOVUDINE]
EC50 [1]: < 3 nM
EC50 [2]: < 3 nM
EC50 [3]: 40 nM
EC50 [4]: < 30 nM
EC50 ([5]; Human immunodeficiency virus 1): > 1000 nM
EC50 ([7]; Human immunodeficiency virus 1): 9 nM
EC50 ([8]; Human immunodeficiency virus 1): 6 nM
EC50 [9]: 4 nM
EC50 ([10]; Human immunodeficiency virus 1): 10 nM

CCCc1cc(=O)oc2c3c(c4c(c12)OC(C)(C)C=C4)O[C@H](C)[C@@H](C)C3=O (stereo in doubt; (+)-2)
TI [11]: > 58
EC50 [1]: > 100000 nM
TI [12]: > 11
EC50 (Homo sapiens [13]): 1760 nM
EC50 (CEM-SS [14]; cem-ss): 170 nM
selectivity ratio [15]: 2
EC50 (Homo sapiens [16]; Homo sapiens): 2660 nM
EC50 [2]: > 100000 nM
EC50 (CEM-SS [17]; cem-ss): 1000 nM
EC50 [18]: 26400 nM
EC50 [3]: > 100000 nM
EC50 (CEM-SS [19]; cem-ss): 1660 nM
EC50 [4]: 6190 nM
EC50 ([5]; Human immunodeficiency virus 1): 2730 nM
TI [20]: > 10
EC50 (B-cell): > 10000 nM
EC50 (CCRF-CEM [21]): > 10000 nM
EC50 [22]: > 100000 nM
EC50 [23]: 30600 nM
EC50 (MT2): 2620 nM
EC50 [6]: 6760 nM
EC50 [7]: 1470 nM
EC50 (CCRF-CEM [24]): 620 nM
EC50 [8]: 2100 nM
EC50 [25]: > 10000 nM
EC50 (Homo sapiens [26]): 2190 nM
TI [27]: 6
EC50 (CEM-SS [28]; cem-ss): 900 nM
EC50 (Homo sapiens [29]): > 10000 nM
EC50 (CCRF-CEM [30]): 1090 nM
EC25 (CEM-SS [31]): 15900 nM
IC25 (CEM-SS [31]): 34800 nM
EC50 [10]: 60500 nM

Nc1ccn([C@H]2CC[C@@H](CO)O2)c(=O)n1 [ZALCITABINE]
selectivity ratio [11]: > 100
selectivity ratio ([12]; human immunodeficiency virus 1, CEM-SS cells infected with HIV-1 strain RF, read-out: TI): > 100
EC50 (CEM-SS [14]; Homo sapiens, CEM-SS): 50 nM
IC50 (CEM-SS [14]; Homo sapiens, CEM-SS): > 5000 nM
selectivity ratio [15]: > 333
EC50 (CEM-SS [17]; Homo sapiens, CEM-SS): 20 nM
EC50 (CEM-SS [19]; Homo sapiens, CEM-SS): 190 nM
IC50 (CEM-SS [19]; Homo sapiens, CEM-SS): > 5000 nM
selectivity ratio ([20]; human immunodeficiency virus 1, CEM-SS cells infected with HIV-1 strain IIIB, read-out: TI): > 250
EC25 (CEM-SS [32]): > 5000 nM
selectivity ratio ([27]; CEM-SS cells infected with SIV delta, read-out: TI): > 26
EC50 (CEM-SS [28]; Homo sapiens, CEM-SS): 50 nM
IC50 (CEM-SS [28]; Homo sapiens, CEM-SS): > 5000 nM
EC25 (CEM-SS [31]; Homo sapiens, CEM-SS, read-out: EC25): 30 nM
IC25 (CEM-SS [31]; Homo sapiens, CEM-SS, read-out: IC25): > 10000 nM

CCCc1cc(=O)oc2c3c(c4c(c12)OC(C)(C)C=C4)O[C@H](C)[C@@H](C)C3=O (stereo in doubt; (-)-2)
selectivity ratio [11]: > 37
TI [12]: > 3
EC50 (CEM-SS [14]; Homo sapiens, CEM-SS): 270 nM
IC50 (CEM-SS [14]; Homo sapiens, CEM-SS): > 10000 nM
IC50 (CEM-SS [17]; Homo sapiens, CEM-SS): > 10000 nM
EC50 (CEM-SS [17]; cem-ss): 1880 nM
IC50 (CEM-SS [19]; Homo sapiens, CEM-SS): > 10000 nM
EC50 (CEM-SS [19]; cem-ss): 6120 nM
TI [20]: > 5
TI [27]: 2
IC50 (CEM-SS [28]; Homo sapiens, CEM-SS): > 10000 nM
EC50 (CEM-SS [28]; cem-ss): 3410 nM

CCCc1cc(=O)oc2c3c(c4c(c12)OC(C)(C)C=C4)O[C@H](C)[C@@H](C)[C@@H]3O [CALANOLIDE A]
EC50 (CEM-SS [17]; Homo sapiens, CEM-SS): 140 nM
EC25 (CEM-SS [33]): inactive
EC50 (CEM-SS [28]; cem-ss): 170 nM

CCCc1cc(=O)oc2c3c(c4c(c12)OC(C)(C)C=C4)O[C@H](C)[C@@H](C)C3=O (racemic)
TI [11]: 37
EC50 (Homo sapiens [34]): > 10000 nM
TI [12]: 14
EC50 (Homo sapiens [13]): 330 nM
IC50 (CEM-SS [14]; cem-ss): 6300 nM
EC50 (Homo sapiens [16]): 2180 nM
EC50 (CEM-SS [17]; cem-ss): 510 nM
IC50 (CEM-SS [17]; cem-ss): 5600 nM
EC50 [18]: > 100000 nM
IC50 (CEM-SS [19]; cem-ss): 6600 nM
EC50 [5]: 3600 nM
TI [20]: 11
EC50 (AA5): 2800 nM
EC50 [23]: > 100000 nM
EC50 (MT2): 560 nM
EC50 [6]: 2030 nM
EC50 [7]: 320 nM
EC50 (CCRF-CEM [24]): 270 nM
EC50 [8]: 590 nM
EC50 (U-937): 3000 nM
TI [27]: 5
EC50 (CEM-SS [35]): 520 nM
EC50 (CEM-SS [28]; cem-ss): 400 nM
IC50 (CEM-SS [28]; cem-ss): 5800 nM
EC25 (CEM-SS [31]): 5570 nM
IC25 (CEM-SS [31]): 13800 nM
EC50 [36]: 510 nM
EC50 [10]: 530 nM
